How the values were obtained:
[1] = test system: Haemonchus contortus; test: Method A: screening against Haemonchus contortus, L1 larvae in microtitre plate; details: 96 h, 4 days assessment, read-out: motility inhibition; for inhibition at 0.01 ppm: test concentration 0.01 ppm; for inhibition at 0.0025 ppm: test concentration 0.0025 ppm
From the text: Method A: Screening Method to Test Activity of Compounds Against Haemonchus contortus.

[2] = test system: Haemonchus contortus; test: Method B: Haemonchus contortus in vivo in Mongolian gerbil, oral gavage; set-up: species or system Mongolian gerbil (Meriones unguiculatus); details: 72 h, Mongolian gerbils, read-out: reduction in nematode infestation; for inhibition in vivo at 100 mg/kg: necropsy 3 days after treatment
Method: Method B: Screening Method to Test Activity of Compounds Against Haemonchus contortus In Vivo in Mongolian Gerbil (Meriones unguiculatus).
Mongolian gerbils, at least five weeks old, were immunosuppressed and artificially infected with ca. 1000 ensheathed Haemonchus contortus third instar larvae. Six days after infection, the Mongolian gerbils were treated by oral gavage with the test compounds, dissolved in a mixture of 2 parts DMSO and 1 part polyethylene glycol (PEG400), at doses of 100 mg/kg and dissolved in pure polyethylene glycol (PEG400) at doses of 10 and 1 mg/kg. Jirds treated only with the placebo (2 parts DMSO and 1 part PEG400 or pure PEG400) served as controls. On day 9 (3 days after treatment) the jirds were euthanized and necropsied for recovery of parasites from the stomach. Efficacy was calculated as the average % reduction in the number of worms in each test group compared with the average number of worms from the control group. […] Compound numbers 1.001, 1.008, 1.012, 1.013 and 1.014 provided at least 95% reduction in nematode infestation in Mongolian gerbils treated by oral gavage with test article at a dose of 100 mg/kg. Compound numbers 1.012, 1.033, 1.064, 2.008, 2.037, 2.038, 2.040, 2.041, 3.001 provided at least 95% reduction in nematode infestation at a dose of 10 mg/kg. Compound numbers 1.094, 2.048, 3.001, 3.007 and 3.009, provided at least 95% reduction in nematode infestation at a dose of 1 mg/kg. Compound numbers 3.005, 3.006, 3.011, 3.012, 3.017 and 3.019, provided at least 95% reduction in nematode infestation at a dose of 0.5 mg/kg.

[3] = test system: Microfilaria of Dirofilaria immitis; test: Method F: microfilaria of Dirofilaria immitis in microtitre plate; details: test concentration 50 ppm, assessment at 24 hours, read-out: motility inhibition
Method: Method F: Screening Method to Test Activity of Compounds Against Microfilaria of Dirofilaria immitis.
Four hundred to six hundred microfilaria of Dirofilaria immitis were added to wells of a microtitre plate containing buffer and the test compound in DMSO. The microtitre plate was then held at 37° C. in an environment containing 5% CO2. An assessment was conducted at 24 hours to determine survival of the microfilaria. Microfilaria exposed to DMSO and no test compound served as controls. Compounds numbers 1.003, 1.012, 1.013, 1.064, 1.086, 1.087, 1.090, 1.094, 2.043, 2.046, 2.047, 2.048, 2.049, 3.005, 3.006, 3.009, 3.011, 3.012, 3.017, 3.019 and 3.023 gave at least 90% motility inhibition at a test concentration of 50 ppm.

[4] = test system: Trichostrongylus colubriformis; test: Method D: screening against Trichostrongylus colubriformis, L1 larvae in microtitre plate; details: 96 h, 4 days assessment, read-out: motility inhibition; for inhibition at 0.0025 ppm: test concentration 0.0025 ppm; for inhibition at 0.01 ppm: test concentration 0.01 ppm
Method: Method D: Screening Method to Test Activity of Compounds Against Trichostrongylus colubriformis.
Twenty L1 Trichostrongylus colubriformis larvae were added to wells of a microtitre plate containing a nutrient medium and the test compound in DMSO. The microtitre plate was then held at 27° C. where the L1 larvae were allowed to develop. An analysis was conducted at 4 days to determine successful development to the L3 stage. Larvae exposed to DMSO and no test compound served as controls. Compounds numbers 1.008, 1.014, 1.042, 1.047, 1.048, 1.073, 2.001, 2.003 and 2.020, gave at least 90% motility inhibition at a test concentration of 0.15 ppm at the 4 days assessment. Compounds numbers 1.001, 1.003, 1.007, 1.011, 1.037, 1.038, 1.043, 1.056, 1.066, 1.070, 1.071, 2.012 and 2.016, gave at least 90% motility inhibition at a test concentration of 0.04 ppm at the 4 days assessment. Compounds numbers 1.012, 1.020, 1.021, 1.033, 1.034, 1.039, 1.064, 1.065, 2.008, 2.009 and 3.005 gave at least 90% motility inhibition at a test concentration of 0.01 ppm at the 4 days assessment. Compounds numbers 1.094, 2.040, 2.048, 2.049, 3.006, 3.009, 3.011 and 3.012 gave at least 90% motility inhibition at a test concentration of 0.0025 ppm at the 4 days assessment.

Row | Compound | inhibition at 50 ppm [3] [%] | inhibition at 0.0025 ppm [1] [%] | inhibition at 0.0025 ppm [4] [%] | other results
1 | CC(C#N)(Cn1nc2cc(Cl)cnc2c1Cl)NC(=O)c1ccc(OC(F)(F)F)cc1 (stereo not shown) [Compound 3.017, N-[1-Cyano-2-(3,6-dichloro-2H-pyrazolo[4,3-b]pyridin-2-yl)-1-methylethyl]-4-trifluoromethoxybenzamide] | ≥ 90 |  |  | inhibition at 0.01 ppm [1]: ≥ 90%; inhibition in vivo at 0.5 mg/kg [2]: ≥ 95%
2 | CC(C#N)(Cn1cc2ncc(Br)cc2n1)NC(=O)c1ccc(OC(F)(F)F)cc1 (stereo not shown) [Compound 3.011, N-[2-(6-Bromo-2H-pyrazolo[4,3-b]pyridin-2-yl)-1-cyano-1-methylethyl]-4-trifluoromethoxybenzamide] | ≥ 90 | ≥ 90 | ≥ 90 | inhibition in vivo at 0.5 mg/kg [2]: ≥ 95%
3 | CC(C#N)(Cn1nc2cc(Cl)cc(Cl)c2n1)NC(=O)c1ccc(OC(F)(F)F)cc1 (stereo not shown) [Compound 1.012, N-[1-Cyano-2-(4,6-dichloro-2H-benzotriazol-2-yl)-1-methylethyl]-4-trifluoromethoxybenzamide] | ≥ 90 |  |  | inhibition at 0.01 ppm [1]: ≥ 90%; inhibition in vivo at 10 mg/kg [2]: ≥ 95%; inhibition in vivo at 100 mg/kg [2]: ≥ 95%; inhibition at 0.01 ppm [4]: ≥ 90%
4 | Cc1cc(Br)c(F)c2nn(CC(C)(C#N)NC(=O)c3ccc(OC(F)(F)F)cc3)nc12 (stereo not shown) [Compound 1.094, N-[2-(5-bromo-4-fluoro-7-methyl-2H-benzotriazol-2-yl)-1-cyano-1-methylethyl]-4-trifluoromethoxybenzamide] | ≥ 90 | ≥ 90 | ≥ 90 | inhibition in vivo at 1 mg/kg [2]: ≥ 95%
5 | CC(C#N)(Cn1nc2cc(Cl)cnc2c1Br)NC(=O)c1ccc(OC(F)(F)F)cc1 (stereo not shown) [Compound 3.019, N-[2-(3-Bromo-6-chloro-2H-pyrazolo[4,3-b]pyridin-2-yl)-1-cyano-1-methylethyl]-4-trifluoromethoxybenzamide] | ≥ 90 |  |  | inhibition at 0.04 ppm ([1]; test concentration 0.04 ppm): ≥ 90%; inhibition in vivo at 0.5 mg/kg [2]: ≥ 95%
6 | Cc1c(Br)cnc2cn(CC(C)(C#N)NC(=O)c3ccc(OC(F)(F)F)cc3)nc12 (stereo not shown) [Compound 3.009, N-[2-(6-Bromo-7-methyl-2H-pyrazolo[4,3-b]pyridin-2-yl)-1-cyano-1-methylethyl]-4-trifluoromethoxybenzamide] | ≥ 90 | ≥ 90 | ≥ 90 | inhibition in vivo at 1 mg/kg [2]: ≥ 95%
7 | CC(C#N)(Cn1nc2c(Cl)cc(Cl)c(Br)c2n1)NC(=O)c1ccc(OC(F)(F)F)cc1 (stereo not shown) [Compound 1.086, N-[2-(4-Bromo-5,7-dichloro-2H-benzotriazol-2-yl)-1-cyano-1-methylethyl]-4-trifluoromethoxybenzamide] | ≥ 90 | ≥ 90 |  | 
8 | CC(C#N)(Cn1cc2c(Cl)cc(Cl)c(Cl)c2n1)NC(=O)c1ccc(OC(F)(F)F)cc1 (stereo not shown) [Compound 2.048, N-[1-Cyano-1-methyl-2-(4,6,7-trichloro-2H-indazol-2-yl)ethyl]-4-trifluoromethoxybenzamide] | ≥ 90 | ≥ 90 | ≥ 90 | inhibition in vivo at 1 mg/kg [2]: ≥ 95%
9 | CC(C#N)(Cn1nc2c(Br)c(Cl)cc(Cl)c2c1Br)NC(=O)c1ccc(OC(F)(F)F)cc1 (stereo not shown) [Compound 2.046, N-[1-Cyano-2-(3,7-dibromo-4,6-dichloro-2H-indazol-2-yl)-1-methylethyl]-4-trifluoromethoxybenzamide] | ≥ 90 | ≥ 90 |  | 
10 | CC(C#N)(Cn1nc2c(Cl)cc(Cl)c(F)c2n1)NC(=O)c1ccc(OC(F)(F)F)cc1 (stereo not shown) [Compound 1.090, N-[1-Cyano-2-(5,7-dichloro-4-fluoro-2H-benzotriazol-2-yl)-1-methylethyl]-4-trifluoromethoxybenzamide] | ≥ 90 | ≥ 90 |  | 
11 | CC(C#N)(Cn1cc2c(Cl)cc(Cl)cc2n1)NC(=O)c1ccc(OC(F)(F)F)cc1 (stereo not shown) [Compound 2.040, N-[1-Cyano-2-(4,6-dichloro-2H-indazol-2-yl)-1-methylethyl]-4-trifluoromethoxybenzamide] |  | ≥ 90 | ≥ 90 | inhibition in vivo at 10 mg/kg [2]: ≥ 95%
12 | CC(C#N)(Cn1cc2ccc(Cl)c(Br)c2n1)NC(=O)c1ccc(OC(F)(F)F)cc1 (stereo not shown) [Compound 2.043, N-[2-(7-Bromo-6-chloro-2H-indazol-2-yl)-1-cyano-1-methylethyl]-4-trifluoromethoxybenzamide] | ≥ 90 | ≥ 90 |  | 
13 | CC(C#N)(Cn1nc2ccc(C(F)(F)F)cc2n1)NC(=O)c1ccc(OC(F)(F)F)cc1 (stereo not shown) [Compound 1.008, N-[1-Cyano-1-methyl-2-(5-trifluoromethyl-2H-benzotriazol-2-yl)ethyl]-4-trifluoromethoxybenzamide] |  |  |  | inhibition at 0.15 ppm ([1]; test concentration 0.15 ppm): ≥ 90%; inhibition in vivo at 100 mg/kg [2]: ≥ 95%; inhibition at 0.15 ppm ([4]; test concentration 0.15 ppm): ≥ 90%
14 | CC(C#N)(Cn1nc2c(Cl)cc(Cl)c(Cl)c2n1)NC(=O)c1ccc(OC(F)(F)F)cc1 (stereo not shown) [Compound 1.064, N-[1-Cyano-1-methyl-2-(4,5,7-trichloro-2H-benzotriazol-2-yl)-ethyl]-4-trifluoromethoxybenzamide] | ≥ 90 | ≥ 90 |  | inhibition in vivo at 10 mg/kg [2]: ≥ 95%; inhibition at 0.01 ppm [4]: ≥ 90%
15 | CC(C#N)(Cn1cc2ncc(Cl)cc2n1)NC(=O)c1ccc(OC(F)(F)F)cc1 (stereo not shown) [Compound 3.005, N-[2-(6-Chloro-2H-pyrazolo[4,3-b]pyridin-2-yl)-1-cyano-1-methylethyl]-4-trifluoromethoxybenzamide] | ≥ 90 |  |  | inhibition at 0.01 ppm [1]: ≥ 90%; inhibition in vivo at 0.5 mg/kg [2]: ≥ 95%; inhibition at 0.01 ppm [4]: ≥ 90%
16 | COc1c2ccc(Cl)cc2nn1CC(C)(C#N)NC(=O)c1ccc(OC(F)(F)F)cc1 (stereo not shown) [Compound 2.008, N-[2-(6-Chloro-3-methoxy-2H-indazol-2-yl)-1-cyano-1-methylethyl]-4-trifluoromethoxybenzamide] |  | ≥ 90 |  | inhibition in vivo at 10 mg/kg [2]: ≥ 95%; inhibition at 0.01 ppm [4]: ≥ 90%

Source: patent publication US8088801B2, “Aryloazol-2-yl cyanoethylamino compounds, method of making and method of using thereof” (Merial Limited, priority 2007, dated 2012)
